Experimental data published in US5521170A, “Benzamide derivatives and pharmaceutical composition comprising the same” (Fujisawa Pharmaceutical Co., Ltd., priority 1993, dated 1996).
pIC50: −log10 of the molar value.

Each compound was assayed against T1, Vasopressin 2 (V2) receptor (Rattus norvegicus, UniProt Q00788) (assay: Vasopressin 2 (V2) receptor binding). Conditions: male rat kidney medullopapillary membrane; 0.5 nM ^3H-vasopressin; 2 hours at 25° C.; pH 7.4.
T1 construct: The medullopapillary region of male rat kidey was dissected; from tissue; host or cells: male rat kidney medullopapillary membranes
T1 sequence (Q00788 whole entry): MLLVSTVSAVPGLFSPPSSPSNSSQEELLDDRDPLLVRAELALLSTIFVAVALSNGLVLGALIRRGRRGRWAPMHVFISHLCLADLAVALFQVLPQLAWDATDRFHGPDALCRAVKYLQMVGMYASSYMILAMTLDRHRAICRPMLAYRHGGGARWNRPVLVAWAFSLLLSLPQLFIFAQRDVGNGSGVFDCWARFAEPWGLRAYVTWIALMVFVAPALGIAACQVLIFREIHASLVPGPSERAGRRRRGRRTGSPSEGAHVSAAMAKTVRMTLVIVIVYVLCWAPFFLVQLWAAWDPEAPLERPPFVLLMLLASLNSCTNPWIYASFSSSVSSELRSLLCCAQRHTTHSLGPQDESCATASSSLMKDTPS
Experimental: Vasopressin 2 (V2) receptor binding
(§1) The medullopapillary region of male rat kidey was dissected and homogenized in 10 volume of ice cold 250 mM sucrose buffer containing 25 mM Tris-HCl (pH 7.4), 5 mM MgCl2 and 0.1 mM phenylmethylsulfonyl fluoride (PMSF). The homogenate was centrifuged at 500 xg for 5 minutes. The supernatant fraction was separated and centrifuged at 45,000 xg for 30 minutes. The remaining pellet was resuspended in 10 volume of ice cold 100 mM Tris-HCl (pH 7.4) buffer (containing 5 mM MgCl2, 0.1% bovine serum albumin and 0.1 mM PMSF), and centrifuged at 45,000 xg for 30 minutes again. The final pellet was resuspended in 100 mM Tris-HCl buffer. The resulting membrane preparation was used immediately for the binding assay.
Competition assays were conducted at equilibrium (2 hours at. 25° C.) by using 0.5 nM ^3 H-vasopression ([phenylalanyl-3,4,5-3H]-vasopression; 40-87 Ci/mmol; New England Nuclear) in 100 mM Tris-HCl (pH 7.4) buffer. Nonspecific binding was determined by using 1 μM [d(CH2)5, D-Ile^2 Ile^4 Arg8]-vasopressin (Peninsula Laboratories USA). After incubation, reaction was terminated by adding 5 ml of ice-cold 100 mM Tris-HCl (pH 7.4) buffer, and then filtered rapidly through Whatman glass filter (GF/C). The filter was washed 2 times with the same buffer (5 ml). The glass filter was mixed with liquid scintilation cocktail, and radioactivity was counted in a liquid scintilation counter (TRI-CARB 4530, Packard). Competition activity of the test compound was represented by IC50 values.
A pIC50 of 8.64 was found for Cc1ccc(-c2ccccc2C(=O)Nc2ccc(C(=O)N3CCC(=O)N(CC(=O)N4CCN(C)CC4)c4ccccc43)cc2)c(C)c1 [16-3), 5-{4-[2-(2,4-Dimethylphenyl)benzoylamino]benzoyl}-1-[(4-methyl-1-piperazinyl)carbonylmethyl]-1,3,4,5-tetrahydro-1,5-benzodiazepin-2 (2H)-one] in this work.
A pIC50 of 8.29 was found for Cc1ccc(-c2ccccc2C(=O)Nc2ccc(C(=O)N3CCCC(CC(=O)N4CCN(C)CC4)c4ccccc43)cc2)cc1 (centres unmarked) [16-69), 1-{4-[2-(4-Methylphenyl)benzoylamino]benzoyl}-5-(4-methyl-1-piperazinylcarbonyl)methyl-2,3,4,5-tetrahydro-1H-1-benzazepine] in this work.
A pIC50 of 8.48 was found for Cc1ccc(-c2ccccc2C(=O)Nc2ccc(C(=O)N3CCC(=O)N(CC(=O)N4CCN(C)CC4)c4cc(Cl)ccc43)cc2)cc1 [16-9), 8-Chloro-5-{4-[2-(4-methylphenyl)benzoylamino]benzoyl}-1-[(4-methyl-1-piperazinyl)carbonylmethyl]-1,3,4,5-tetrahydro-1,5-benzodiazepin-2(2H)-one] in this work.
A pIC50 of 8.74 was found for Cc1ccc(-c2ccccc2C(=O)Nc2ccc(C(=O)N3CCC(=O)N(CC(=O)N4CCN(C)CC4)c4ccccc43)cc2)cc1 [Example 15, 5-{4-[2-(4-methylphenyl)benzoylamino]benzoyl}-1-[(4-methyl-1-piperazinyl)carbonylmethyl]-1,3,4,5-tetrahydro-1,5-benzodiazepin-2(2H)-one] in this work.
A pIC50 of 8.52 was found for Cc1ccc(-c2ccccc2C(=O)Nc2ccc(C(=O)N3CC(=O)Nc4ccccc43)cc2)cc1 [2-4), 1-{4-[2-(4-Methylphenyl)benzoylamino]benzoyl}-1,2,3,4-tetrahydroquinoxalin-3-one] in this work.
A pIC50 of 8.57 was found for Cc1ccc(-c2ccccc2C(=O)Nc2ccc(C(=O)N3CCC(=O)N(CC(=O)N4CCN(C)CC4)c4cc(C)ccc43)cc2)cc1 [16-14), 8-Methyl-5-{4-[2-(4-methylphenyl)benzoylamino]benzoyl}-1-[(4-methyl-1-piperazinyl)carbonylmethyl]1,3,4,5-tetrahydro-1,5-benzodiazepin-2(2H)-one] in this work.

The compounds below were run against T2, Vasopressin 1 (Vl) receptor (Rattus norvegicus, UniProt P30560) (assay: Vasopressin 1 (Vl) receptor binding). Conditions: rat liver membrane; 0.5 nM ^3H-vasopressin; 60 minutes at 25° C.; pH 7.4.
T2 construct: The rat liver was dissected and homogenized; from tissue; host or cells: rat liver membranes
T2 sequence (P30560 whole entry): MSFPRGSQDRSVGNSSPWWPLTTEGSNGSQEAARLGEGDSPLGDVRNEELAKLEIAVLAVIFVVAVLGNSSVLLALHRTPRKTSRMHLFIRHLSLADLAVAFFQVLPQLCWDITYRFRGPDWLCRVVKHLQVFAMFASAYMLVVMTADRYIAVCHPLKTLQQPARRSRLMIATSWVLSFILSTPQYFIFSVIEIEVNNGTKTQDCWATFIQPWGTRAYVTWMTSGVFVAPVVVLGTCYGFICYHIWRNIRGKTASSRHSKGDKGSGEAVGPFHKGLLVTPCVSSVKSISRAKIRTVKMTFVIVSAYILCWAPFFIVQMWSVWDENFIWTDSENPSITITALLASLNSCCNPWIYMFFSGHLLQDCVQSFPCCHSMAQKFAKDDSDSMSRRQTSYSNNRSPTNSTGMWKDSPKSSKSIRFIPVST
Experimental: Vasopressin 1 (Vl) receptor binding
as §1, with “The” for “The medullopapillary region of male”, “rat liver” for “rat kidey”, “at 1000” for “at 500”, “for 10” for “for 5”
Competition assays were conducted at equilibrium (60 minutes at 25° C.) by using 0.5 nM ^3 H-vasopressin ([phenylalanyl-3,4,5-^3 H]-vasopression; 40-87 Ci/mmol; New England Nuclear) in 100 mM Tris-HCl (pH 7.4) buffer. Nonspecific binding was determined by using 1 μM [d(CH2)5, Tyr^2 (Me), Arg^8 ]-vasopressin (Peptide institute, Japan). After incubation, reaction was terminated by adding 5 ml of ice-cold 100 mM Tris-HCl (pH 7.4) buffer, and then filtered rapidly through Whatman glass filter (GF/C). […] The glass filter was mixed with liquid scintilation cocktail, and radioactivity was counted in a liquid scintilation counter (TRI-CARB 4530, Packard). […]
A pIC50 of 8.36 was found for Cc1ccccc1-c1ccccc1C(=O)Nc1ccc(C(=O)N2CCCC(N(C)C)c3ccccc32)cc1 (centres unmarked) [2-21), 5-Dimethylamino-1-{4-[2-(2-methylphenyl)benzoylamino]benzoyl}-2,3,4,5-tetrahydro-1H-benzazepine] in this work.
A pIC50 of 8.41 was found for Cc1ccc(-c2ccccc2C(=O)Nc2ccc(C(=O)N3CCCCc4ccccc43)cc2)cc1 [2-2), 1-{4-[2-(4-Methylphenyl)benzoylamino]benzoyl}-2,3,4,5-tetrahydro-1H-benzazepine] in this work.
